From patent US10722514B2 (FLX Bio, Inc., priority 2017, dated 2020) come the findings set out here.

SMILES strings stand for the structures. Where a name gives a salt, the structure may show the parent alone. Read-outs that look alike come from different tables or passages of the source.

This assay addresses T1, recombinant full-length USP7 (Homo sapiens, UniProt Q93009).
T1 construct: A 25 μl reaction volume containing recombinant full-length USP7 (62 pM)
The assay is described as follows: USP7-mediated ubiquitin-rhodamine cleavage assay. Type of assay: biochemical. Conditions: recombinant full-length USP7 62 pM, ubiquitin-rhodamine 100 nM, 1 hour reaction at room temperature. A digest of the protocol: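 Enzyme 62 pM; HEPES pH 7.3/150 mM NaCl/1 mM TCEP/125 μg/ml BSA; 1% DMSO; 30 min cpd preinc RT; Ub-rhodamine 100 nM, 1 h RT, dark; acetic acid stop; fluorescence; IC50 4-param fit.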

Setting [1] is: 30-minute pre-incubation, read-out: Potency (USP7 IC50).
The mark [2] stands for this setting: 30-minute incubation with compound, read-out: Potency: USP7 IC50.

T1 sequence (Q93009 whole entry): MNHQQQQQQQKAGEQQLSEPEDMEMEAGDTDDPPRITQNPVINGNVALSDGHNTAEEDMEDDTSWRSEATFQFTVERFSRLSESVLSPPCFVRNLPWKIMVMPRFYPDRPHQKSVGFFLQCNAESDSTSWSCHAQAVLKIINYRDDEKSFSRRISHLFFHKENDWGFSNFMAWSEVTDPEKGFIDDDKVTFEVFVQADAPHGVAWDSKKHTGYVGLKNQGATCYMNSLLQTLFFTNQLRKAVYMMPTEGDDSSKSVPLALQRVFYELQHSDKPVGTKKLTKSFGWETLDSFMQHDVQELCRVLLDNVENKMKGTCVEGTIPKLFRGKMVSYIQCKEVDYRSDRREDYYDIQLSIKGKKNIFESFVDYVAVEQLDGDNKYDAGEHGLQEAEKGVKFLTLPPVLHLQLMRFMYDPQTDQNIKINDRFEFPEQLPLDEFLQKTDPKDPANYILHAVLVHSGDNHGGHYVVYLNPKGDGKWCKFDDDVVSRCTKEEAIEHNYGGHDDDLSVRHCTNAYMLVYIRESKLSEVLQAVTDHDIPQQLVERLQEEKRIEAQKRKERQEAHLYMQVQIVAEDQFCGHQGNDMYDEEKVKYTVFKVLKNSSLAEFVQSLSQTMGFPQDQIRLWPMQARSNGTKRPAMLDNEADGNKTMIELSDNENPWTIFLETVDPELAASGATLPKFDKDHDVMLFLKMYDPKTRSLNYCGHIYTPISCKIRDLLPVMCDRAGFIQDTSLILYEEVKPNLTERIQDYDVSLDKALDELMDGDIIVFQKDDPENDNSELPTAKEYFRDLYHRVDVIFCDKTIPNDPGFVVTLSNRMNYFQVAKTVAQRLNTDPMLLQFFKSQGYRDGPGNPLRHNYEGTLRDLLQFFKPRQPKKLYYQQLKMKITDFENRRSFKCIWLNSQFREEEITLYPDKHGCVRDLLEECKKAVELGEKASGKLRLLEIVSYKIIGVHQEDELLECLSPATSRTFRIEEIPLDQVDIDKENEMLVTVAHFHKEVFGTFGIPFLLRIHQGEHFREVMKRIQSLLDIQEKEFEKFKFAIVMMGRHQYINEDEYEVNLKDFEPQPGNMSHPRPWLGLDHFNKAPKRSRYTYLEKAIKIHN

For `CCN1CCCC(Oc2c(C)cc(Cl)cc2-c2ccnc3cc(Cn4c(=O)ccn(C)c4=O)sc23)C1` (stereo not shown) [Example 504, 3-[[7-[5-chloro-2-[(1-ethyl-3-piperidyl)oxy]-3-methyl-phenyl]thieno[3,2-b]pyridin-2-yl]methyl]-1-methyl-pyrimidine-2,4-dione], the concentration for half-maximal inhibition (IC50) – broadly, the point on the concentration scale where inhibition reaches its midpoint – under setting [1] is below 1 µM.

`Cc1cc(Cl)cc(-c2ccnc3cc(CN4C(=O)CN(C)C4=O)sc23)c1OCC1(C)CNC1` [Example 25, 3-((7-(5-Chloro-3-methyl-2-((3-methylazetidin-3-yl)methoxy)phenyl)thieno[3,2-b]pyridin-2-yl)methyl)-1-methylimidazolidine-2,4-dione]: the IC50 under setting [2] is below 1 µM.

`Cc1cc(Cl)cc(-c2ccnc3cc(CN4C(=O)CCC4=O)sc23)c1OC1CNCc2ccccc21` (stereo not shown) [Example 429, 1-[[7-[5-chloro-3-methyl-2-(1,2,3,4-tetrahydroisoquinolin-4-yloxy)phenyl]thieno[3,2-b]pyridin-2-yl]methyl]pyrrolidine-2,5-dione]: the IC50 under setting [1] is below 1 µM.

Regarding `Cc1cc(Cl)cc(-c2ccnc3cc(CN4C(=O)CCC4=O)sc23)c1O[C@H]1C[C@H]2CN[C@@H]1C2` [Example 220, 1-((7-(2-(((1R,4S,6S)-2-azabicyclo[2.2.1]heptan-6-yl)oxy)-5-chloro-3-methylphenyl)thieno[3,2-b]pyridin-2-yl)methyl)pyrrolidine-2,5-dione], the concentration for half-maximal inhibition (IC50) under setting [2] was below 1 µM.

Consider `Cc1cc(Cl)cc(-c2ccnc3cc(Cn4c(=O)ccn(CC(F)(F)F)c4=O)sc23)c1O[C@H]1CCCNC1` [Example 484, 3-[[7-[5-chloro-3-methyl-2-[[(3S)-3-piperidyl]oxy]phenyl]thieno[3,2-b]pyridin-2-yl]methyl]-1-(2,2,2-trifluoroethyl)pyrimidine-2,4-dione], for which the IC50 under setting [1] is below 1 µM.

`Cc1cc(Cl)cc(-c2ccnc3cc(Cn4c(=O)ccn(C5COC5)c4=O)sc23)c1O[C@H]1CCCNC1` [Example 5, (S)-3-((7-(5-Chloro-3-methyl-2-(piperidin-3-yloxy)phenyl)thieno[3,2-b]pyridin-2-yl)methyl)-1-(oxetan-3-yl)pyrimidine-2,4(1H,3H)-dione]: the IC50 under setting [2] was below 1 µM.

With `Cc1cc(Cl)cc(-c2ncnc3cc(Cn4c(=O)ccn(C)c4=O)sc23)c1O[C@H]1CCNC[C@@H]1F` [Example 560, 3-[[4-[5-chloro-2-[[(3S,4S)-3-fluoro-4-piperidyl]oxy]-3-methyl-phenyl]thieno[3,2-d]pyrimidin-6-yl]methyl]-1-methyl-pyrimidine-2,4-dione], the IC50 under setting [1] was below 1 µM.

Consider `Cc1cc(Cl)cc(-c2ccnc3cc(Cn4c(=O)ccn(C)c4=O)sc23)c1O[C@@H]1CCCN[C@@H]1C` [Example 468, 3-[[7-[5-chloro-3-methyl-2-[[(2R,3R)-2-methyl-3-piperidyl]oxy]phenyl]thieno[3,2-b]pyridin-2-yl]methyl]-1-methyl-pyrimidine-2,4-dione; 2,2,2-trifluoroacetic acid], for which the half-maximal inhibitory concentration (IC50) under setting [1] was below 1 µM.

`COC(=O)[C@@H]1C[C@H](Oc2c(C)cc(Cl)cc2-c2ccnc3cc(Cn4c(=O)ccn(CC(F)(F)F)c4=O)sc23)CN1` [Example 652, methyl (2S,4S)-4-[4-chloro-2-[2-[[2,6-dioxo-3-(2,2,2-trifluoroethyl)pyrimidin-1-yl]methyl]thieno[3,2-b]pyridin-7-yl]-6-methyl-phenoxy]pyrrolidine-2-carboxylate]: under setting [1], the IC50 is below 1 µM.

As to `Cc1cc(Cl)cc(-c2ccnc3cc(Cn4c(=O)ccn(C)c4=O)sc23)c1O[C@@H]1CNC[C@H](C)C1` [Example 524, 3-[[7-[5-chloro-3-methyl-2-[[(3S,5R)-5-methyl-3-piperidyl]oxy]phenyl]thieno[3,2-b]pyridin-2-yl]methyl]-1-methyl-pyrimidine-2,4-dione], the IC50 under setting [1] is below 1 µM.

`Cc1cc(Cl)cc(-c2ccnc3cc(Cn4c(=O)ccn(CC(F)(F)F)c4=O)sc23)c1O[C@@H]1C=C[C@@H](N)C1` [Example 630, 3-[[7-[2-[(1S,4S)-4-aminocyclopent-2-en-1-yl]oxy-5-chloro-3-methyl-phenyl]thieno[3,2-b]pyridin-2-yl]methyl]-1-(2,2,2-trifluoroethyl)pyrimidine-2,4-dione]: the half-maximal inhibitory concentration (IC50) under setting [1] is below 1 µM.

For the molecule `Cc1cc(C#N)cc(-c2ccnc3cc(CN4C(=O)CCC4=O)sc23)c1O[C@@H]1CNC[C@@H]1F` [Example 97, 3-(2-((2,5-Dioxopyrrolidin-1-yl)methyl)thieno[3,2-b]pyridin-7-yl)-4-(((3R,4S)-4-fluoropyrrolidin-3-yl)oxy)-5-methylbenzonitrile], the IC50 under setting [2] was below 1 µM.

Take `Cc1cc(Cl)cc(-c2ncnc3cc(CN4C(=O)C5C(C4=O)C5(C)C)sc23)c1OC1CC(N)C1` (stereo not shown) [Example 358, 3-[[4-[2-(3-aminocyclobutoxy)-5-chloro-3-methyl-phenyl]thieno[3,2-d]pyrimidin-6-yl]methyl]-6,6-dimethyl-3-azabicyclo[3.1.0]hexane-2,4-dione; 2,2,2-trifluoroacetic acid]: the concentration for half-maximal inhibition (IC50) under setting [2] is below 1 µM.

Take `CCN1CC[C@@H](Oc2c(C)cc(Cl)cc2-c2ccnc3cc(Cn4c(=O)ccn(CC(F)(F)F)c4=O)sc23)[C@@H](C)C1` [Example 690, 3-[[7-[5-chloro-2-[[(3S,4R)-1-ethyl-3-methyl-4-piperidyl]oxy]-3-methyl-phenyl]thieno[3,2-b]pyridin-2-yl]methyl]-1-(2,2,2-trifluoroethyl)pyrimidine-2,4-dione]: under “30-minute incubation, read-out: Potency (USP7 IC50)”, the IC50 was below 1 µM.

For `Cc1cc(Cl)cc(-c2ncnc3cc(CN4C(=O)C5C(C4=O)C5(C)C)sc23)c1O[C@@H]1CCN(C)C[C@@H]1C` (stereo partly drawn) [Example 373, 3-[[4-[5-chloro-2-[[(3S,4R)-1,3-dimethyl-4-piperidyl]oxy]-3-methyl-phenyl]thieno[3,2-d]pyrimidin-6-yl]methyl]-6,6-dimethyl-3-azabicyclo[3.1.0]hexane-2,4-dione dihydrochloride], the half-maximal inhibitory concentration (IC50) under setting [2] is below 1 µM.

Take `Cc1cc(Cl)cc(-c2ccnc3cc(CN4C(=O)C5CC5C4=O)sc23)c1O[C@@H]1CNC[C@@H]1F` (stereo partly drawn) [Example 300, 3-[[7-[5-chloro-2-[(3R,4S)-4-fluoropyrrolidin-3-yl]oxy-3-methyl-phenyl]thieno[3,2-b]pyridin-2-yl]methyl]-3-azabicyclo[3.1.0]hexane-2,4-dione]: under setting [2], the IC50 is below 1 µM.

For the molecule `CO[C@H]1CNC[C@H]1Oc1c(C)cc(Cl)cc1-c1ccnc2cc(CN3C(=O)C4C(C3=O)C4(C)C)sc12` (stereo partly drawn) [Example 388, 3-[[7-[5-chloro-2-[(3R,4S)-4-methoxypyrrolidin-3-yl]oxy-3-methyl-phenyl]thieno[3,2-b]pyridin-2-yl]methyl]-6,6-dimethyl-3-azabicyclo[3.1.0]hexane-2,4-dione dihydrochloride], under setting [2], the concentration for half-maximal inhibition (IC50) was below 1 µM.

Turning to `Cc1cc(Cl)cc(-c2ccnc3ccsc23)c1OC1CCNCC1` [Example 180, 7-(5-Chloro-3-methyl-2-(piperidin-4-yloxy)phenyl)thieno[3,2-b]pyridine], the IC50 under setting [2] lay within 10 to 30 µM.

On to `Cc1cc(Cl)cc(-c2ncnc3cc(CN4C(=O)CCC4=O)sc23)c1O[C@H]1CC[C@H](C)NC1` [Example 338, 1-[[4-[5-chloro-3-methyl-2-[[(3S,6S)-6-methyl-3-piperidyl]oxy]phenyl]thieno[3,2-d]pyrimidin-6-yl]methyl]pyrrolidine-2,5-dione dihydrochloride], for which the IC50 under setting [2] is below 1 µM.
